Results as given in patent publication US20220071925A1, “MEDICINAL COMPOSITION FOR PREVENTING OR TREATING BONE DISEASES” (GEXVAL INC., priority 2019, published 2022).

Columns and labels:
R264.7 cells = assay: Combined effect of compounds on LPS-stimulated mouse macrophage-derived cells, gene expression by RNA sequencing (Test Example 2); type: cell-based; details: LPS 100 ng/mL 24 h, free fatty acid (stearic acid) 10 μM, Fasiglifam 10 μM, alone or in combination
Protocol: The combined effect of the compounds on the change when macrophage cells were stimulated by lipopolysaccharide (LPS) derived from bacteria was examined by integrated gene expression analysis using RNA next-generation sequencing. […].7 cells purchased from KAC Co., Ltd. were used in the test. The cells were suspended in DMEM with 10% serum, seeded in a 24-well plate at a concentration of 1.6×10^5 cells/well, and cultured at 37° C. under a 5% CO2 condition. 30 minutes prior to addition of LPS, a free fatty acid at 10 μM and Fasiglifam at 10 μM were added alone or in combination. Stearic acid was used as the free fatty acid. After culturing for 30 minutes after addition of the compound, LPS was added to each well at a concentration of 100 ng/mL. PBS of the same amount as LPS was added to a non-stimulated control group. After culturing for 24 hours with the addition of LPS, the medium was removed, and total RNA was extracted using RNeasy (QIAGEN). mRNA was recovered from the total RNA to prepare a library, and RNA sequencing (Illumina Hiseq) was performed. Samples from the following five groups were sequenced, and the expression level of each gene was estimated from the obtained read count data. […] Further, these expression-fluctuated genes were subjected to a pathway analysis to examine their association with the disease.

GPR40 = GPR40 (Homo sapiens, UniProt O14842); details: cited from earlier work
osteoclasts [1] = details: caused by interaction of osteoclasts (RANK) with osteoblasts (RANKL); cited from earlier work
osteoclasts [2] = details: action of GW9508 on GPR40; cited from earlier work
[3] = in vivo; cited from earlier work

Chain of GPR40 (O14842 whole entry, species assumed): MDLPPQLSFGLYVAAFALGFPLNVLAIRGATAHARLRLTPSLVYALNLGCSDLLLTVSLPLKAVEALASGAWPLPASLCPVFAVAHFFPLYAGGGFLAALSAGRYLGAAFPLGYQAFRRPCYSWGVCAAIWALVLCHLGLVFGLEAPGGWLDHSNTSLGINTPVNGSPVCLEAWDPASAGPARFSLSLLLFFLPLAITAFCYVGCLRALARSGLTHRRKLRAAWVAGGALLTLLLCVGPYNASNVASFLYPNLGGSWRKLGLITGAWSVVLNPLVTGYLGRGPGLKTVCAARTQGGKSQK

`Cc1cc(OCCCS(C)(=O)=O)cc(C)c1-c1cccc(COc2ccc3c(c2)OC[C@H]3CC(=O)O)c1` [Fasiglifam, [(3S)-6-({2′,6′-dimethyl-4′-[3-(methylsulfonyl)propoxy]biphenyl-3-yl}methoxy)-2,3-dihydro-1-benzofuran-3-yl]acetic acid] gave an AAAS expression level (R264.7 cells) of 0, a BCL2L1 expression level (R264.7 cells) of 0 and a C3AR1 expression level (R264.7 cells) of 0. The CCL2 expression level (R264.7 cells) was 0, the CCL3 expression level (R264.7 cells) was 0 and the CCL4 expression level (R264.7 cells) was 0. For the same compound, the CD36 expression level (R264.7 cells) was 0, the CSF1R expression level (R264.7 cells) was 0 and the CSF3 expression level (R264.7 cells) was 0. It also gave a DUSP5 expression level (R264.7 cells) of 0, an EIF4B expression level (R264.7 cells) of 0 and an EIF4G2 expression level (R264.7 cells) of 0. For the same compound, the GBP7 expression level (R264.7 cells) was 0, the GRIN1 expression level (R264.7 cells) was 0 and the IL7R expression level (R264.7 cells) was 0. The IP6K2 expression level (R264.7 cells) was 0, the LYN expression level (R264.7 cells) was 0 and the NF1 expression level (R264.7 cells) was 0. For the same compound, the NOS2 expression level (R264.7 cells) was 0, the PIK3CD expression level (R264.7 cells) was 0 and the PIM1 expression level (R264.7 cells) was 0. The PIP5K1C expression level (R264.7 cells) was 0, the PLAUR expression level (R264.7 cells) was 0 and the PLEKHO2 expression level (R264.7 cells) was 0. The PPP2CA expression level (R264.7 cells) was 0, the PSMA6 expression level (R264.7 cells) was 0 and the PSMA7 expression level (R264.7 cells) was 0. It also gave a PSMC2 expression level (R264.7 cells) of 0, a PSMD13 expression level (R264.7 cells) of 0 and a PYGB expression level (R264.7 cells) of 0. For the same compound, the RASGRP3 expression level (R264.7 cells) was 0, the SDCBP expression level (R264.7 cells) was 0 and the SMPD1 expression level (R264.7 cells) was 0. For the same compound, the SUMO1 expression level (R264.7 cells) was 0, the TNF expression level (R264.7 cells) was 0 and the TNFRSF1B expression level (R264.7 cells) was 0. For the same compound, the TNFSF8 expression level (R264.7 cells) was 0, the TNRC6B expression level (R264.7 cells) was 0 and the “agonist selectivity GPR40 versus GPR120” value (GPR40) was “selective agonist for GPR40”.
Work on `CCCCCCCCCCCCCCCCCC(=O)O` [Fatty acid, Stearic acid] yielded an AAAS expression level (R264.7 cells) of 0, a BCL2L1 expression level (R264.7 cells) of 0 and a C3AR1 expression level (R264.7 cells) of 0. The CCL2 expression level (R264.7 cells) was 0, the CCL3 expression level (R264.7 cells) was 0 and the CCL4 expression level (R264.7 cells) was 0. It also gave a CD36 expression level (R264.7 cells) of 0, a CSF1R expression level (R264.7 cells) of 0 and a CSF3 expression level (R264.7 cells) of 0. For the same compound, the DUSP5 expression level (R264.7 cells) was 0, the EIF4B expression level (R264.7 cells) was 0 and the EIF4G2 expression level (R264.7 cells) was 0. For the same compound, the GBP7 expression level (R264.7 cells) was 0, the GRIN1 expression level (R264.7 cells) was 0 and the IL7R expression level (R264.7 cells) was 0. It also gave an IP6K2 expression level (R264.7 cells) of 0, an LYN expression level (R264.7 cells) of 0 and an NF1 expression level (R264.7 cells) of 0. For the same compound, the NOS2 expression level (R264.7 cells) was 0, the PIK3CD expression level (R264.7 cells) was 0 and the PIM1 expression level (R264.7 cells) was 0. The PIP5K1C expression level (R264.7 cells) was 0, the PLAUR expression level (R264.7 cells) was 0 and the PLEKHO2 expression level (R264.7 cells) was 0. The PPP2CA expression level (R264.7 cells) was 0, the PSMA6 expression level (R264.7 cells) was 0 and the PSMA7 expression level (R264.7 cells) was 0. For the same compound, the PSMC2 expression level (R264.7 cells) was 0, the PSMD13 expression level (R264.7 cells) was 0 and the PYGB expression level (R264.7 cells) was 0. It also gave an RASGRP3 expression level (R264.7 cells) of 0, an SDCBP expression level (R264.7 cells) of 0 and an SMPD1 expression level (R264.7 cells) of 0. For the same compound, the SUMO1 expression level (R264.7 cells) was 0, the TNF expression level (R264.7 cells) was 0 and the TNFRSF1B expression level (R264.7 cells) was 0. The TNFSF8 expression level (R264.7 cells) was 0 and the TNRC6B expression level (R264.7 cells) was 0.
For `O=C(O)CCc1ccc(NCc2cccc(Oc3ccccc3)c2)cc1` [GW9508], the “agonist selectivity GPR40 versus GPR120” value (GPR40) is given as “dual agonist for GPR40 and GPR120”, the “formation of osteoclasts (differentiation and maturation into osteoclasts)” value (osteoclasts [1]) is given as “suppressing the formation of osteoclasts” and the differentiation into osteoclasts (osteoclasts [2]) is given as “the differentiation into osteoclasts is suppressed”. For the same compound, the “bone loss due to ovariectomy” value [3] was “bone loss due to ovariectomy can be prevented”.
